Experiments:
Plenodomus lingam [1] = assay: Inhibition of Leptosphaeria maculans brassinin oxidase activity at 0.30 mM relative to control
Plenodomus lingam [2] = assay: Inhibition of Leptosphaeria maculans brassinin oxidase activity at 0.10 mM relative to control
Plenodomus lingam [3] = assay: Inhibition of Leptosphaeria maculans brassinin oxidase assessed as relative protein at 0.50 mM relative to control
Plenodomus lingam [4] = assay: Inhibition of Leptosphaeria maculans brassinin oxidase assessed as relative specific activity at 0.10 mM relative to control
Plenodomus lingam [5] = assay: Inhibition of Leptosphaeria maculans brassinin oxidase assessed as relative specific activity at 0.50 mM relative to control
Plenodomus lingam [6] = assay: Antifungal activity against Leptosphaeria maculans assessed as inhibition of mycelial growth at 0.20 mM relative to control; assay type: functional
Plenodomus lingam [7] = assay: Inhibition of Leptosphaeria maculans brassinin oxidase assessed as relative protein at 0.10 mM relative to control
Plenodomus lingam [8] = assay: Inhibition of Leptosphaeria maculans brassinin oxidase assessed as relative specific activity at 0.20 mM relative to control
[9] = Solubility of the compound at 50 mM; assay type: physicochemical; conditions: 50000 µM
Plenodomus lingam [10] = assay: Antifungal activity against Leptosphaeria maculans assessed as inhibition of mycelial growth at 0.10 mM relative to control; assay type: functional
Plenodomus lingam [11] = assay: Inhibition of Leptosphaeria maculans brassinin oxidase assessed as relative protein at 0.20 mM relative to control
Plenodomus lingam [12] = assay: Antifungal activity against Leptosphaeria maculans assessed as inhibition of mycelial growth at 0.50 mM relative to control; assay type: functional

Row | Structure (SMILES) | inhibition (Plenodomus lingam [1]) | inhibition (Plenodomus lingam [2]) | Ratio (Plenodomus lingam [3]) | Ratio (Plenodomus lingam [4]) | Ratio (Plenodomus lingam [5]) | inhibition at 200 µM (Plenodomus lingam [6]) | Ratio (Plenodomus lingam [7]) | Ratio (Plenodomus lingam [8]) | solubility [9] | inhibition at 100 µM (Plenodomus lingam [10]) | Ratio (Plenodomus lingam [11]) | inhibition at 500 µM (Plenodomus lingam [12])
1 | Fc1ccc2c(-c3ccccc3)c[nH]c2c1 | 17% | 11% | – | – | – | – | – | – | – | – | – | –
2 | c1ccc2c(-c3cnsc3)cccc2c1 | 21% | 16% | – | – | – | – | – | – | – | – | – | –
3 | c1ccc2cc(-c3cnsc3)ccc2c1 [2-NAPHTHALENYLISOTHIAZOLE] | 42% | 29% | 0.16 | 2.6 | 16.3 | 53% | 0.26 | 8.5 | Insoluble | 41% | 0.17 | –
4 | c1ccc(-c2c[nH]c3ccccc23)cc1 [3-PHENYLINDOLE] | – | – | 0.1 | 30.9 | 5.7 | – | 0.18 | 39.2 | – | 100% | 0.14 | –
5 | Fc1ccc2[nH]cc(-c3nccs3)c2c1 [5-FLUOROCAMALEXIN] | 63% | 47% | 0.19 | 5 | 7.9 | 81% | 0.3 | 4.9 | – | 76% | 0.23 | 100%
6 | COc1ccc2[nH]cc(-c3nccs3)c2c1 [5-METHOXYCAMALEXIN] | 72% | 51% | 0.13 | 1.7 | 1.6 | 84% | 0.28 | 5.8 | – | 60% | 0.24 | 100%
7 | Fc1ccc2c(-c3nccs3)c[nH]c2c1 [6-FLUOROCAMALEXIN] | 46% | 29% | 0.24 | 3.9 | 1.8 | 47% | 0.36 | 4 | – | 29% | 0.28 | 83%
8 | COc1ccc2c(-c3nccs3)c[nH]c2c1 [6-METHOXYCAMALEXIN] | 63% | 41% | 0.11 | 2.3 | 4 | 78% | 0.27 | 3.7 | – | 17% | 0.16 | 100%
9 | c1ccc2c(-c3nccs3)c[nH]c2c1 [CAMALEXIN] | 53% | 30% | 0.1 | 4.5 | 2.5 | 65% | 0.28 | 6.9 | – | 35% | 0.24 | 100%
10 | c1ccc2[nH]c(-c3cscn3)nc2c1 [THIABENDAZOLE] | 25% | 16% | 0.06 | 1.9 | 4.9 | – | 0.35 | 4.1 | – | 100% | 0.28 | –
